Measurements as given in patent publication US6706663B2, “Herbicidal 3-heterocyclic substituted benzisothiazole and benzisoxazole compounds” (Wyeth, priority 2000, dated 2004).

Assays:
[1] = tested on: TRZAWR (Wheat, Winter, cv Riband); assay: Postemergence herbicidal evaluation; format: in vivo, Triticum aestivum; conditions: for TRZAWR herbicidal rating: postemergence
How it was run: (§1)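 Seedlings grown about two weeks in flats, sprayed, then kept under standard greenhouse care. Rated visually 4–5 weeks after treatment on a 0–9 scale (stand, vigour, malformation, size, chlorosis, overall appearance) relative to untreated control; repeat tests averaged.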

CYPIR (Cyperus iria) = assay: Flooded paddy, preemergence weed control; format: in vivo; conditions: rate 0.1250 kg/ha, rated 3-4 weeks after treatment, 0-9 rating scale
How it was run: (§2)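 Visual 0-9 rating versus control, scoring stand, vigor, malformation, size, chlorosis and overall appearance. Silt loam soil, propagules in top 0.5 cm; flood depth 1.5–3 cm held for the whole test; greenhouse.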

[2] = tested on: AMBEL (Ambrosia artemisifolia); assay: Postemergence herbicidal evaluation; format: in vivo, L.; conditions: for AMBEL herbicidal rating: postemergence
How it was run: as §1

[3] = tested on: CASOB (Cassia obtusifolia); assay: Postemergence herbicidal evaluation; format: in vivo, L.; conditions: for CASOB herbicidal rating: postemergence
How it was run: as §1

[4] = tested on: CHEAL (Chenopodium album); assay: Postemergence herbicidal evaluation; format: in vivo, L.; conditions: for CHEAL herbicidal rating: postemergence
How it was run: as §1

ORYSAT (Rice, Tebonnet) [5] = assay: Preemergence herbicidal evaluation; format: in vivo, Oryza sativa, (L.) Tebonnet; conditions: rated 4-5 weeks after treatment
[6] = tested on: SAGPY (Sagittaria pygmaea); assay: Flooded paddy, preemergence weed control; format: in vivo, L.; conditions: rate 0.0080 kg/ha, rated 3-4 weeks after treatment, 0-9 rating scale
How it was run: as §2

[7] = tested on: CYPSE (Cyperus serotinus); assay: Flooded paddy, preemergence weed control; format: in vivo, Rottb.; conditions: rated 3-4 weeks after treatment, 0-9 rating scale
How it was run: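 Seeds or propagules were planted 0.5 cm deep in silt loam and flooded to 1.5–3 cm. Compounds in 50/50 v/v aqueous/acetone were pipetted into the flood water at about 0.0080 to 0.1250 kg/ha. After 3–4 weeks in the greenhouse, effect was rated visually on a 0–9 scale versus untreated control.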

[8] = tested on: ECHCG (Echinochloa crus-galli); assay: Preemergence herbicidal evaluation; format: in vivo, (L.) Beau; conditions: rated 4-5 weeks after treatment
How it was run: (§3)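 Seeds planted in potting soil cups and sprayed preemergence with aqueous acetone compound solution. Greenhouse-grown; rated 4–5 weeks after treatment on a 0-9 visual scale (stand, vigor, malformation, size, chlorosis, appearance) versus control.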

SETVI (Setaria viridis) [9] = assay: Preemergence herbicidal evaluation; format: in vivo, (L.) Beau; conditions: rated 4-5 weeks after treatment
How it was run: as §3

[10] = tested on: AMBEL (Ambrosia artemisifolia); assay: Preemergence herbicidal evaluation; format: in vivo, L.; conditions: rated 4-5 weeks after treatment
How it was run: as §3

[11] = tested on: CASOB (Cassia obtusifolia); assay: Preemergence herbicidal evaluation; format: in vivo, L.; conditions: rated 4-5 weeks after treatment
How it was run: as §3

[12] = tested on: CHEAL (Chenopodium album); assay: Preemergence herbicidal evaluation; format: in vivo, L.; conditions: rated 4-5 weeks after treatment
How it was run: as §3

ORYSAT (Rice, Tebonnet) [13] = assay: Postemergence herbicidal evaluation; format: in vivo, Oryza sativa, (L.) Tebonnet; conditions: for ORYSAT herbicidal rating: postemergence
How it was run: as §1

[14] = tested on: ABUTH (Abutilon theophrasti); assay: Postemergence herbicidal evaluation; format: in vivo, Medic.; conditions: for ABUTH herbicidal rating: postemergence
How it was run: as §1

GALAP (Galium aparine) [15] = assay: Preemergence herbicidal evaluation; format: in vivo; conditions: rated 4-5 weeks after treatment
How it was run: as §3

SETVI (Setaria viridis) [16] = assay: Postemergence herbicidal evaluation; format: in vivo, (L.) Beau; conditions: for SETVI herbicidal rating: postemergence
How it was run: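 Visual injury score (0-9: stand, vigor, malformation, size, chlorosis, overall appearance vs untreated control) taken four to five weeks post-spray. Two-week-old seedlings received about 0.0040 to 1.000 kg/ha active compound in acetone/water with 0.5% TWEEN 20.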

[17] = tested on: MOOVA (Monochoria vaginalis); assay: Flooded paddy, preemergence weed control; format: in vivo, Presl.; conditions: rated 3-4 weeks after treatment, 0-9 rating scale
How it was run: as §2

GALAP (Galium aparine) [18] = assay: Postemergence herbicidal evaluation; format: in vivo; conditions: for GALAP herbicidal rating: postemergence
How it was run: as §1

[19] = tested on: IPOHE (Ipomoea hederacea); assay: Postemergence herbicidal evaluation; format: in vivo, (L.) Jacq.; conditions: for IPOHE herbicidal rating: postemergence
How it was run: as §1

[20] = rate 0.0320 kg/ha, listed as 82

1-methyl-3-[3-(1,3-oxathian-2-yl)-1,2-benzisothiazol-5-yl]-6-(trifluoromethyl)uracil S′,S′-dioxide [Compound 35]
7.5: Postemergence herbicidal rating, TRZAWR ([1]; rate 0.0620 kg/ha) | Preemergence herbicidal rating ECHCG ([8]; Rate 0.2500 kg/ha)
8.5: herbicidal rating, MOOVA ([17]; rate 0.0080 kg/ha, listed as 82)
1.5: TRZAWR herbicidal rating ([1]; rate 0.0320 kg/ha) | TRZAWR herbicidal rating ([1]; rate 0.0620 kg/ha) | Preemergence herbicidal rating CASOB ([11]; Rate 0.1250 kg/ha) | ORYSAT herbicidal rating (ORYSAT (Rice, Tebonnet) [13]; rate 0.0320 kg/ha)
6.0: Preemergence herbicidal rating ECHCG ([8]; Rate 0.1250 kg/ha)
2.0: herbicidal rating, CYPSE ([7]; rate 0.0320 kg/ha) | Preemergence herbicidal rating CASOB ([11]; Rate 0.2500 kg/ha) | GALAP herbicidal rating (GALAP (Galium aparine) [18]; rate 0.0320 kg/ha)
6.5: Preemergence herbicidal rating AMBEL ([10]; Rate 0.2500 kg/ha) | Postemergence herbicidal rating, ORYSAT (ORYSAT (Rice, Tebonnet) [13]; rate 0.0320 kg/ha) | Postemergence herbicidal rating, ORYSAT (ORYSAT (Rice, Tebonnet) [13]; rate 0.0620 kg/ha)
4.0: AMBEL herbicidal rating ([2]; rate 0.0320 kg/ha) | CASOB herbicidal rating ([3]; rate 0.0320 kg/ha) | CASOB herbicidal rating ([3]; rate 0.0620 kg/ha) | SETVI herbicidal rating (SETVI (Setaria viridis) [16]; rate 0.0620 kg/ha) | GALAP herbicidal rating (GALAP (Galium aparine) [18]; rate 0.0620 kg/ha) | Postemergence herbicidal rating, GALAP (GALAP (Galium aparine) [18]; rate 0.0620 kg/ha)
8.0: ECHCG preemergence herbicidal rating ([8]; Rate 0.0620 kg/ha) | Preemergence herbicidal rating SETVI (SETVI (Setaria viridis) [9]; Rate 0.0620 kg/ha)
3.5: Preemergence herbicidal rating AMBEL ([10]; Rate 0.0620 kg/ha)
0.0: Preemergence herbicidal rating ORYSAT (ORYSAT (Rice, Tebonnet) [5]; Rate 0.0620 kg/ha) | Preemergence herbicidal rating ORYSAT (ORYSAT (Rice, Tebonnet) [5]; Rate 0.1250 kg/ha) | Preemergence herbicidal rating ORYSAT (ORYSAT (Rice, Tebonnet) [5]; Rate 0.2500 kg/ha) | herbicidal rating, SAGPY [6] | Preemergence herbicidal rating CASOB ([11]; Rate 0.0620 kg/ha) | herbicidal rating, MOOVA ([17]; rate 0.0080 kg/ha)
3.0: Preemergence herbicidal rating ECHCG ([8]; Rate 0.0620 kg/ha) | SETVI herbicidal rating (SETVI (Setaria viridis) [16]; rate 0.0320 kg/ha) | Postemergence herbicidal rating, GALAP (GALAP (Galium aparine) [18]; rate 0.0320 kg/ha)
7.0: Postemergence herbicidal rating, TRZAWR ([1]; rate 0.0320 kg/ha) | CHEAL herbicidal rating ([4]; rate 0.0320 kg/ha) | CASOB preemergence herbicidal rating ([11]; Rate 0.0620 kg/ha) | CASOB preemergence herbicidal rating ([11]; Rate 0.1250 kg/ha) | Preemergence herbicidal rating GALAP (GALAP (Galium aparine) [15]; Rate 0.0620 kg/ha) | IPOHE herbicidal rating ([19]; rate 0.0320 kg/ha)
5.5: ORYSAT preemergence herbicidal rating (ORYSAT (Rice, Tebonnet) [5]; Rate 0.0620 kg/ha) | Preemergence herbicidal rating AMBEL ([10]; Rate 0.1250 kg/ha)
5.0: herbicidal rating, CYPSE ([7]; rate 0.1250 kg/ha) | herbicidal rating, MOOVA ([17]; rate 0.0320 kg/ha)
2.5: ORYSAT herbicidal rating (ORYSAT (Rice, Tebonnet) [13]; rate 0.0620 kg/ha)
9.0: herbicidal rating, CYPIR (CYPIR (Cyperus iria)) | AMBEL herbicidal rating ([2]; rate 0.0620 kg/ha) | Postemergence herbicidal rating, AMBEL ([2]; rate 0.0320 kg/ha) | Postemergence herbicidal rating, AMBEL ([2]; rate 0.0620 kg/ha) | Postemergence herbicidal rating, CASOB ([3]; rate 0.0320 kg/ha) | Postemergence herbicidal rating, CASOB ([3]; rate 0.0620 kg/ha) | CHEAL herbicidal rating ([4]; rate 0.0620 kg/ha) | Postemergence herbicidal rating, CHEAL ([4]; rate 0.0320 kg/ha) | Postemergence herbicidal rating, CHEAL ([4]; rate 0.0620 kg/ha) | ORYSAT preemergence herbicidal rating (ORYSAT (Rice, Tebonnet) [5]; Rate 0.1250 kg/ha) | ORYSAT preemergence herbicidal rating (ORYSAT (Rice, Tebonnet) [5]; Rate 0.2500 kg/ha) | herbicidal rating, CYPSE [7, 20] | herbicidal rating, CYPSE ([7]; rate 0.1250 kg/ha, listed as 82) | ECHCG preemergence herbicidal rating ([8]; Rate 0.1250 kg/ha) | ECHCG preemergence herbicidal rating ([8]; Rate 0.2500 kg/ha) | SETVI preemergence herbicidal rating (SETVI (Setaria viridis) [9]; Rate 0.0620 kg/ha) | SETVI preemergence herbicidal rating (SETVI (Setaria viridis) [9]; Rate 0.1250 kg/ha) | Preemergence herbicidal rating SETVI (SETVI (Setaria viridis) [9]; Rate 0.1250 kg/ha) | SETVI preemergence herbicidal rating (SETVI (Setaria viridis) [9]; Rate 0.2500 kg/ha) | Preemergence herbicidal rating SETVI (SETVI (Setaria viridis) [9]; Rate 0.2500 kg/ha) | AMBEL preemergence herbicidal rating ([10]; Rate 0.0620 kg/ha) | AMBEL preemergence herbicidal rating ([10]; Rate 0.1250 kg/ha) | AMBEL preemergence herbicidal rating ([10]; Rate 0.2500 kg/ha) | CASOB preemergence herbicidal rating ([11]; Rate 0.2500 kg/ha) | CHEAL preemergence herbicidal rating ([12]; Rate 0.0620 kg/ha) | Preemergence herbicidal rating CHEAL ([12]; Rate 0.0620 kg/ha) | CHEAL preemergence herbicidal rating ([12]; Rate 0.1250 kg/ha) | Preemergence herbicidal rating CHEAL ([12]; Rate 0.1250 kg/ha) | CHEAL preemergence herbicidal rating ([12]; Rate 0.2500 kg/ha) | Preemergence herbicidal rating CHEAL ([12]; Rate 0.2500 kg/ha) | ABUTH herbicidal rating ([14]; rate 0.0320 kg/ha) | ABUTH herbicidal rating ([14]; rate 0.0620 kg/ha) | Postemergence herbicidal rating, ABUTH ([14]; rate 0.0320 kg/ha) | Postemergence herbicidal rating, ABUTH ([14]; rate 0.0620 kg/ha) | GALAP preemergence herbicidal rating (GALAP (Galium aparine) [15]; Rate 0.0620 kg/ha) | GALAP preemergence herbicidal rating (GALAP (Galium aparine) [15]; Rate 0.1250 kg/ha) | Preemergence herbicidal rating GALAP (GALAP (Galium aparine) [15]; Rate 0.1250 kg/ha) | GALAP preemergence herbicidal rating (GALAP (Galium aparine) [15]; Rate 0.2500 kg/ha) | Preemergence herbicidal rating GALAP (GALAP (Galium aparine) [15]; Rate 0.2500 kg/ha) | Postemergence herbicidal rating, SETVI (SETVI (Setaria viridis) [16]; rate 0.0320 kg/ha) | Postemergence herbicidal rating, SETVI (SETVI (Setaria viridis) [16]; rate 0.0620 kg/ha) | herbicidal rating, MOOVA [17, 20] | herbicidal rating, MOOVA ([17]; rate 0.1250 kg/ha) | IPOHE herbicidal rating ([19]; rate 0.0620 kg/ha) | Postemergence herbicidal rating, IPOHE ([19]; rate 0.0320 kg/ha) | Postemergence herbicidal rating, IPOHE ([19]; rate 0.0620 kg/ha)
